In US20170151215A1, “USE OF ROTIGOTINE FOR TREATING THE RESTLESS LEG SYNDROME” (UCB PHARMA GMBH, priority 2002, published 2017):

Legend:
[1] = tested on: Restless Leg Syndrome (RLS); details: cited from earlier work; for effectiveness in RLS / side effects: short-term therapy studies; for side effects: usually in the beginning and as a function of the dosage
[2] = tested on: patients suffering from moderate to very severe idiopathic Restless Leg Syndrome; assay: placebo-controlled, double-blind, randomized clinical test of rotigotine TTS in Restless Leg Syndrome patients; type: in vivo, human; details: for Reduction of the average IRLSSG Value as compared to Placebo Treatment by Day 8: 8 days treatment
Text: The rotigotine TTS produced per one of the above implementation examples was investigated in placebo-controlled, double-blind, randomized clinical tests at several centers, covering in a study with triple-branched parallel groups 63 patients who were suffering from moderate to very severe idiopathic Restless Leg Syndrome conditions.
The average age of the patients was 58.3 years. Randomization in the three treatment groups in terms of gender, age and severity of prior illnesses was reasonably balanced.
Over a treatment period of eight (8) days the patients of one group were treated with 5 cm^2 TTS and the patients of another group were treated with 10 cm^2 TTS. For a comparison the patients in the placebo group were treated with a placebo TTS. Within 24 hours, each of the above-mentioned drug-containing TTS's released 2.25 mg and, respectively, 4.5 mg rotigotine to the patient concerned.
As a result of the prespecified primary effectiveness the activities of daily life and the motoricity had changed, based on the generally accepted rating scale of the International Restless Leg Syndrome Study Group (IRLSSG), from the initial value to that in the concluding treatment evaluation (8th day).
On the basis of 10 questions, the IRLSSG measures and rates the following clinical parameters in Restless Leg patients:
The overall IRLSSG rating is derived from the individual values as follows:
First, an initial starting value is determined for each patient participating in the study. This is done by adding up the individual IRLSSG parameter values as of Day 0, i.e. before the treatment. Over the course of the treatment the IRLSSG values are compared with the starting value and any changes from that starting value are recorded. Finally, the average improvement of the IRLSSG value as of Day 8 over the starting value is determined by calculating the average of all test subjects. The resulting value is called CAS—(complete analysis set) randomized average change from the starting value of the overall IRLSSG rating.
Patients suffering from the Restless Leg Syndrome have been known to display a relatively strong response to placebos, meaning that even when treated with placebos these Restless Leg Syndrome patients show a certain improvement of their IRLSSG values. It is therefore important to compare any effect of the drug treatment with the degree of the IRLSSG improvement obtained through placebo treatment over the same time period. Thus, the final assessment of the improvement takes into account the effect of a placebo treatment during the same time period.

CCN(CC)C(=O)N[C@H]1C=C2c3cccc4[nH]cc(c34)C[C@H]2N(C)C1 [lisuride]
effectiveness in RLS [1]: effective
side effects [1]: nausea, vomiting, dizziness, hypotension, constipation or insomnia

CCCN1C[C@H](CSC)C[C@@H]2c3cccc4[nH]cc(c34)C[C@H]21 [pergolide]
effectiveness in RLS [1]: effective
side effects [1]: nausea, vomiting, dizziness, hypotension, constipation or insomnia

CCCN[C@H]1CCc2nc(N)sc2C1 [pramipexol]
serious side effect ([1]; in vivo): Attacks of drowsiness
effectiveness in RLS [1]: effective
side effects [1]: nausea, vomiting, dizziness, hypotension, constipation or insomnia

N[C@@H](Cc1ccc(O)c(O)c1)C(=O)O [L-DOPA, levodopa]
effect on the disorder (RLS) ([1]; long-term therapy): clear mitigation of the disorder

CC(C)C[C@H]1C(=O)N2CCC[C@H]2[C@]2(O)O[C@](NC(=O)[C@@H]3C[C@@H]4c5cccc6[nH]cc(c56)C[C@H]4N(C)C3)(C(C)C)C(=O)N12 [alpha dihydroergocryptine]
effectiveness in RLS [1]: effective
side effects [1]: nausea, vomiting, dizziness, hypotension, constipation or insomnia

CC(C)C[C@H]1C(=O)N2CCC[C@H]2[C@]2(O)O[C@](NC(=O)[C@@H]3C=C4c5cccc6[nH]c(Br)c(c56)C[C@H]4N(C)C3)(C(C)C)C(=O)N12 [bromocriptine]
side effects [1]: nausea, vomiting, dizziness, hypotension, constipation or insomnia

CCCN(CCC)CCc1cccc2c1CC(=O)N2 [ropinirol]
effectiveness in RLS [1]: effective
side effects [1]: nausea, vomiting, dizziness, hypotension, constipation or insomnia

C=CCN1C[C@H](C(=O)N(CCCN(C)C)C(=O)NCC)C[C@@H]2c3cccc4[nH]cc(c34)C[C@H]21 [cabergolin]
effectiveness in RLS [1]: effective
side effects [1]: nausea, vomiting, dizziness, hypotension, constipation or insomnia

CCCN(CCc1cccs1)[C@H]1CCc2c(O)cccc2C1 [Rotigotine, (-)-5,6,7,8-tetrahydro-6-[propyl [2-(2-thienyl)ethyl]amino]-1-naphtol]
Reduction of the average IRLSSG Value as compared to Placebo Treatment by Day 8 ([2]; 5 cm^2 TTS, 2.25 mg rotigotine per 24 hours, p (one side) 0.09): 3.6
Reduction of the average IRLSSG Value as compared to Placebo Treatment by Day 8 ([2]; 10 cm^2 TTS, 4.5 mg rotigotine per 24 hours, p (one side) 0.04): 6.3
skin reactions at the point of application ([2]; administered via the TTS): generally very minor
tolerability ([2]; administered via the TTS): generally well tolerated
tolerability ([2]; administered via the TTS, listed as rotigotine): well tolerated and safe
subjective symptoms (tingling, cramps and pain in the legs, restlessness during the night, difficulties falling or remaining asleep) ([2]; end of the 8-day treatment, both patient groups (5 cm^2 and 10 cm^2 TTS)): either disappeared or diminished to a tolerable minimum
daytime weariness, nausea, dizziness, vomiting, insomnia caused by the treatment ([2]; patient reports, as a function of the dose administered): did not or only to a very minimal extent cause
clinical improvement in patients in a moderate to severe stage of Restless Leg Syndrome ([2]; transdermally administered once daily): distinct clinical improvement

Clc1cccc(Cl)c1NC1=NCCN1 [clonidine, 2-(2,6-dichloroanilino)-4,5-dihydroimidazol]
frequency of waking up ([1]; treatment of RLS): no effect
periodic leg movement during sleep (PLMS) ([1]; treatment of RLS): no effect
quality of sleep ([1]; treatment of RLS): no effect
soporiferous latency ([1]; treatment of RLS): reduced
